Here are results for three molecules from patent US20160090397A1, “Se-Adenosyl-L-Selenohomocysteine Selenoxide As A Modulator Of Methyltransferase And Other Activities” (priority 2014, published 2016).

Entries after “also recorded” stand apart in the source; their conditions may differ.

Data set [1] has as its target T1, catechol-O-methyltransferase (COMT) (Homo sapiens, UniProt P21964).
T1 sequence (P21964 1-271): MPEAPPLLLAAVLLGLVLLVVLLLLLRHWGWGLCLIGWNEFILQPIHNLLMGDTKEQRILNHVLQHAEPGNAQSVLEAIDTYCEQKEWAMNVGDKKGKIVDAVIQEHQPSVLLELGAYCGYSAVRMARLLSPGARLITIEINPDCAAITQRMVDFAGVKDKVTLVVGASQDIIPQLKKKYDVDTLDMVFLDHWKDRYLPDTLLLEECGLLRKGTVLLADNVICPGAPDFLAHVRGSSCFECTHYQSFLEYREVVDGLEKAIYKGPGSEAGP
Briefly: Reduction upon incubation with methyltransferase COMT. In kind it is biochemical. As for the experimental part:
(§1) However, SeAHO was not reduced upon incubation with the non-methyltransferase protein lysozyme (data not shown). […] The reduction of SeAHO by methyltransferases may result in the oxidation or modification of these enzymes. This property could be exploited to identify methyltransferases that are reactive with SeAHO, or, depending on the site of oxidation, this process may modulate the activities of methyltransferases. In other words, SeAHO may act as a covalent inhibitor (reactive or suicide inhibitor) or activator of these methyltransferases.

Data set [2] in a line: Stability of SeAHO in aqueous solutions (HPLC, proton NMR). In kind it is physicochemical. As for the experimental part: Characterization of selenoxide SeAHO in an aqueous environment was of greater biological significance.
The selenoxide SeAHO generally appeared to be a 60:40 mixture by ^1H NMR in 50 mM phosphate buffers of D2O at measured pH's of 3 and 7.

Data set [3] has as its target T1, catechol-O-methyltransferase (COMT). Nature of the data set: COMT-catalysed oxidation of epinephrine to adrenochrome with SeAHO. Format: biochemical. To be noted: various COMT concentrations. From the text:
This reactivity (redox reaction) conferred by SeAHO can be exploited to oxidize substrate compounds in a selective and specific manner.

Data set [4] deals with T2, thiopurine methyltransferase (TPMT) (Homo sapiens, UniProt P51580).
T2 sequence (P51580 1-245): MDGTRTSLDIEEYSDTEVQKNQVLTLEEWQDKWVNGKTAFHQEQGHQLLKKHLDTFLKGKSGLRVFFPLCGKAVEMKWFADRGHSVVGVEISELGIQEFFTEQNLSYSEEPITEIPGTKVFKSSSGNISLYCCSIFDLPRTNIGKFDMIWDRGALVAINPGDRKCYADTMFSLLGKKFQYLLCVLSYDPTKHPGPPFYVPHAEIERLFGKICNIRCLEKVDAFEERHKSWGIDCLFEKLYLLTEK
Nature of the data set: Reduction upon incubation with methyltransferase TPMT. In kind it is biochemical. As for the experimental part: as §1

Another data set deals with lysozyme. Nature of the data set: Incubation with non-methyltransferase protein lysozyme. In kind it is biochemical. To be noted: data not shown. As for the experimental part: as §1
The nature of data set [5]: Reduction of selenoxide/sulfoxide by thiols and thioethers at ambient temperature (C18 HPLC). Format: physicochemical. As to conditions: for reduction by glutathione (GSH) / reduction by cysteine: ambient temperature; for reduction by glutathione (GSH): C18 HPLC. From the text: The sulfoxide SAHO analog was not reduced under these biological conditions with glutathione (GSH) or cysteine. The reduction of sulfoxides generally requires more forcing conditions.

Data set [6] concerns the target T1, catechol-O-methyltransferase (COMT). As to conditions: in vitro; cited from earlier work.
The target of data set [7] is histamine N-methyltransferase (HMT) (Homo sapiens, UniProt P50135). To be noted: in vitro; cited from earlier work.
histamine N-methyltransferase (HMT), sequence (P50135 whole entry, species assumed): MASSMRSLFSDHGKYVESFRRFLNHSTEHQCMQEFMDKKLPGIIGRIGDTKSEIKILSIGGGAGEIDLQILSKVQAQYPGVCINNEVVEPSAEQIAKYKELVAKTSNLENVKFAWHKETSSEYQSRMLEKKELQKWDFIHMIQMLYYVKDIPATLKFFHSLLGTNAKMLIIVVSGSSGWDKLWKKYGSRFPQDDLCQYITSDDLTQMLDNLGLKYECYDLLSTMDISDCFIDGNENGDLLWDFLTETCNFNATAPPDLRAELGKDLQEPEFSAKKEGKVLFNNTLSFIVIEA
In data set [8] the target is T3, phenylethanolamine N-methyltransferase (PNMT) (Homo sapiens, UniProt P11086).
T3 sequence (P11086 1-282): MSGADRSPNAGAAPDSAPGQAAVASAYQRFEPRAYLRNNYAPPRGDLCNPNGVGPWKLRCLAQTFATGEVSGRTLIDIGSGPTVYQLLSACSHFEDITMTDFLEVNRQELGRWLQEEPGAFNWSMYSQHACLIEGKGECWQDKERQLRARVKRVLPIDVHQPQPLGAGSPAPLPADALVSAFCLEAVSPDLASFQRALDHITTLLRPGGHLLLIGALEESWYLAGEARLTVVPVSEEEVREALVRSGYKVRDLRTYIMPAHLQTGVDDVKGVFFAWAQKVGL
As to conditions: in vitro; cited from earlier work.

The target of data set [9] is E. coli cyclopropane fatty acid synthase (Escherichia coli, UniProt P0A9H7). As to conditions: in vitro; cited from earlier work.
E. coli cyclopropane fatty acid synthase, sequence (P0A9H7 whole entry): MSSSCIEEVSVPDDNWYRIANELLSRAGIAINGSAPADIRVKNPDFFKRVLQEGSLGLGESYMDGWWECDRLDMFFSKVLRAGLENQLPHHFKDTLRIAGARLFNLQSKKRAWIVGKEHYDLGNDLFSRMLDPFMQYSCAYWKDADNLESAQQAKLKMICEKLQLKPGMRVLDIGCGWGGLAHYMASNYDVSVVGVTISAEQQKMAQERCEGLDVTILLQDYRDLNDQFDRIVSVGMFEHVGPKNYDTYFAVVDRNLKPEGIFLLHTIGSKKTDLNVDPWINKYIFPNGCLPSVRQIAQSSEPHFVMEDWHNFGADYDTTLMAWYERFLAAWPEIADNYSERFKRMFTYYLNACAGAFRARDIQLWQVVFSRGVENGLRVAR
Data set [10] has as its target protein methyltransferase II (Homo sapiens, UniProt P22061). As to conditions: in vitro; cited from earlier work.
The test system of data set [11] is viral mRNA methyltransferases. To be noted: in vitro; cited from earlier work.
Data set [12] has as its target T2, thiopurine methyltransferase (TPMT). Briefly: Oxidation of thionitrobenzoate (TNB), Se-SAHO as TPMT substrate (absorbance). In kind it is biochemical. From the text: FIG. 1 depicts an absorbance spectrum for Se—SAHO as a thiopurine methyltransferase (TPMT) substrate wherein the oxidation of thionitrobenzoate (TNB) by H2O2 causes a clear shift in absorbance maxima from ˜410 nm to ˜325 nm.

protein methyltransferase II, sequence (P22061 whole entry): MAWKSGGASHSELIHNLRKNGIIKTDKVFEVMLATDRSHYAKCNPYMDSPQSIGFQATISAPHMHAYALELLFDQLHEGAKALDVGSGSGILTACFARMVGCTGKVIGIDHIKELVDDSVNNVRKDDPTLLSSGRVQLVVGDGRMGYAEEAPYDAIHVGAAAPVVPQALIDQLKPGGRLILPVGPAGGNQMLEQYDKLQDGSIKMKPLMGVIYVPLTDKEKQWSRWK

As to `Nc1ncnc2c1ncn2[C@@H]1O[C@H](C[Se](=O)CC[C@H](N)C(=O)O)C(O)[C@@H]1O` (some centres unmarked) [SeAHO, Se-Adenosylselenohomocysteine selenoxide], in data set [1], the “reduction upon incubation with COMT” value is on record as “reduced to Se-adenosyl-L-selenohomocysteine (SeAH)”. In data set [2] (after 2 weeks or when prepared in pure deionized water), the “decomposition by HPLC” value was “some decomposition was observed”. Also, the “decomposition by NMR” value in [2] (pH 12 phosphate buffer) is reported as “only a very small amount of decomposition was observed”. Moreover, the “stability to hydrolysis of the C1′-adenine bond / degradation” value in data set [2] (phosphate buffered aqueous solutions, pH 3-12, ambient temperature, at least three hours, HPLC or proton NMR) is given as “completely stable”. Besides, the “COMT-catalysed oxidation of epinephrine to adrenochrome” value in [3] was “reacts with epinephrine to form adrenochrome at a rate dependent on COMT concentration; also recorded: catalyzes the oxidation of epinephrine with SeAHO and the production of adrenochrome and SeAH”. In addition, the “reduction upon incubation with TPMT” value in data set [4] is “reduced to Se-adenosyl-L-selenohomocysteine (SeAH)”. Further, the “reduction upon incubation with lysozyme” value in the data set on lysozyme is given as “not reduced”. The “reduction by glutathione (GSH)” value in data set [5] is given as “readily reduced”. In addition, in [5] (data not shown), the reduction by cysteine result is “also reduced; also recorded: readily reduced” and the “reduction by thioether methionine” value was “not by thioethers methionine”.

With `Nc1ncnc2c1ncn2[C@@H]1O[C@H](C[S+]([O-])CC[C@H](N)C(=O)O)[C@@H](O)[C@H]1O` (some centres unmarked) [SAHO], the “inhibition of COMT” value in data set [6] was “inhibitor”. Further, in data set [7], the “inhibition of HMT” value is “inhibitor”. In data set [1], the “reduction upon incubation with COMT” value was “remains oxidized”. The “inhibition of PNMT” value in data set [8] is reported as “inhibitor”. Further, the “inhibition of E. coli cyclopropane fatty acid synthase” value in data set [9] is “inhibitor”. In [10], the “inhibition of protein methyltransferase II” value is given as “inhibitor”. Moreover, the “inhibition of viral mRNA methyltransferases” value in [11] is “inhibitor”. In addition, in data set [5], the “reduction by glutathione (GSH)” value is listed as “not reduced”. For the same molecule, the reduction by cysteine result in [5] (data not shown) is recorded as “not reduced”.

As to “Se-Adenosylselenohomocysteine selenoxide [SeAHO]”, in data set [12], the “oxidation of TNB (shift in absorbance maxima)” value was “able to oxidize TNB”.
